Measured values published in patent publication US20240190904A1, “Heteroaryl compounds as inhibitors of RIP2 kinase, composition and application thereof” (Accro Bioscience (HK) Limited, priority 2021, published 2024).
Structures can show the parent of a compound that is named as a salt.

Assays:
[1] = molecular target: RIP2 kinase (Homo sapiens (Human), UniProt O43353); experiment: Binding affinity assay (Kd)
Procedure: For most assays, kinase-tagged T7 phage strains were prepared in an E. coli host derived from the BL21 strain. E. coli were grown to log-phase and infected with T7 phage and incubated with shaking at 32° C. until lysis. The lysates were centrifuged and filtered to remove cell debris. The remaining kinases were produced in HEK-293 cells and subsequently tagged with DNA for qPCR detection. Streptavidin coated magnetic beads were treated with biotinylated small molecule ligands for 30 minutes at room temperature to generate affinity resins for kinase assays. The liganded beads were blocked with excess biotin and washed with blocking buffer (SeaBlock (Pierce), 1% BSA, 0.05% Tween 20, 1 mM DTT) to remove unbound ligand and to reduce non-specific binding. Binding reactions were assembled by combining kinases, liganded affinity beads, and test compounds in 1× binding buffer (20% SeaBlock, 0.17×PBS, 0.05% Tween 20, 6 mM DTT). Test compounds were prepared as 111× stocks in 100% DMSO. Kds were determined using an 11-point 3-fold compound dilution series with three DMSO control points. All compounds for Kd measurements are distributed by acoustic transfer (non-contact dispensing) in 100% DMSO. The compounds were then diluted directly into the assays such that the final concentration of DMSO was 0.9%. All reactions performed in polypropylene 384-well plate. Each was a final volume of 0.02 ml. The assay plates were incubated at room temperature with shaking for 1 hour and the affinity beads were washed with wash buffer (1×PBS, 0.05% Tween 20). The beads were then re-suspended in elution buffer (1×PBS, 0.05% Tween 20, 0.5 μM nonbiotinylated affinity ligand) and incubated at room temperature with shaking for 30 minutes. The kinase concentration in the eluates was measured by qPCR.
An 11-point 3-fold serial dilution of each test compound was prepared in 100% DMSO at 100× final test concentration and subsequently diluted to 1× in the assay (final DMSO concentration=1%). Most Kds were determined using a compound top concentration=30,000 nM. If the initial Kd determined was <0.5 nM (the lowest concentration tested), the measurement was repeated with a serial dilution starting at a lower top concentration.
Binding constants (Kds) were calculated with a standard dose-response curve using the Hill equation: […]
The Hill Slope was set to −1.
Curves were fitted using a non-linear least square fit with the Levenberg-Marquardt algorithm.

[2] = test system: IL-8 in THP-1 induced by MDP; experiment: THP-1 cell assay, IL-8 ELISA after MDP; type: cell-based; settings: for inhibition at 0.01 µM: Homo sapiens, test compounds 10 nM, THP-1, MDP induced
Procedure: Acute monoblastic and monocytic leukemia (THP-1) was obtained from ATCC (item NO. TIB-202™). The temperature of the sterile incubator is 37˜38° C., the osmotic pressure is 260˜320 mmol/L, the pH range is 7.2˜7.4, and the ratio of carbon dioxide gas is 5%.
Cells were seeded in 96-well plates. After an hour, cells were incubated with test compounds for 2 hours. MDP (10 μL) was added and incubated for 6 hours. The samples were centrifuged (3000 rmp/min) for 5 minutes. The concentration of IL-8 in the supernatants was detected by IL-8 ELISA.

[3] = Pharmacokinetic evaluation in mice; type: in vivo
Procedure: The mice pharmacokinetic characteristics of compounds were tested by standard protocols. The candidate compounds were made into clear solution for single intravenous injection (i.v.) and suspension for oral administration (p.o.). Intravenous vehicle is 5% DMSO+95% Saline while oral vehicle is 0.5% CMCNa. The experiment used 48 male mice and 24 mice for intravenous at a dose of 2 mg/kg. Plasma samples were collected at 0 h (before dosing) and 0.083 h, 0.25 h, 0.5 h, 1 h, 2 h, 4 h, 8 h, 24 h after dosing. Another 24 mice were orally administrated with a dose of 10 mg/kg. Plasma samples were collected at 0 h (before dosing) and 0.25 h, 0.5 h, 1 h, 2 h, 4 h, 6 h, 8 h, 24 h after dosing.
Blood samples were placed in tubes containing K2-EDTA and stored on ice until centrifuged. The blood samples were centrifuged at 6800 g for 6 minutes at 2-8° C. within 1 h after collected and stored frozen at approximately −80° C.
The analytical results were confirmed using quality control samples for intra-assay variation. The accuracy of >66.7% of the quality control samples and 50% of all QC samples at each concentration level were between 80-120% of the known value(s).
Standard set of parameters including Area Under the Curve (AUC(0-t) and AUC(0-∞)), elimination half-live (T1/2), maximum plasma concentration (Cmax), time to reach maximum plasma concentration (Tmax) were calculated using noncompartmental analysis modules in FDA certified pharmacokinetic program Phoenix WinNonlin 7.0 (Pharsight, USA) by the Study Director.

[4] = Protein binding test (dialysis), dog; type: in vitro ADME
Procedure: (§1) • 1. Spiking Solutions of Test and Reference Compounds • 1.1 Solution A (0.5 mM): Add 10 μL of 10 mM stock solution into 190 μL of DMSO. • 1.2 Solution B (0.02 mM): Add 8 μL of Solution A into 192 μL of 0.05 M sodium phosphate buffer. The final DMSO concentration in Solution B is 4%. • 2. Preparation of Test and Reference Compounds • 2.1 Preload a 96-well plate with 380 μL aliquots of plasma in the wells designated for plasma and buffer, respectively. • 2.2 Spike 20 μL of Solution B (0.02 mM of test and reference compounds) into the pre-loaded plasma in the 96-well plate. The final test concentration is 1 μM containing 0.2% DMSO. • 3. Dialysis Sample Loading • 3.1 Preparing plasma against buffer system (duplicate): Apply aliquots of 100 μL of blank dialysis buffer to the receiver side of dialysis chambers. Then apply aliquots of 100 μL of the plasma spiked with test and reference compounds to the donor side of the dialysis chambers. • 3.2 Preparing T0 plasma samples for initial concentrations (duplicate): • 3.2.1 Aliquot 25 μL of the plasma spiked with test and reference compounds into a 96-well sample preparation plate as T0 plasma samples • 3.2.2 Mix the aliquots with same volume of blank buffer (50:50, v/v). • 3.2.3 Quench the samples with 200 μL of acetonitrile containing internal standard (IS). • 3.3 Cover the dialysis block with a plastic lid and place the entire apparatus in a shaker (60 rpm) for 5 hours at 37° C. • 3.4 Preparing dialyzed samples after 5-hour incubation: • 3.4.1 Aliquot 25 μL from both the donor sides and receiver sides of the dialysis apparatus into new sample preparation plates and mix the aliquots with same volume of opposite matrixes (blank buffer to plasma and vice versa). • 3.4.2 Quench the samples with 200 μL acetonitrile containing internal standard (IS). Vortex all the samples (from 0 h and 5 h) at 600 rpm for 10 min followed by centrifugation at 5594 g for 15 minutes (ThermoMultifuge×3R). • 3.4.3 Transfer 50 μL of the supernatants to a new 96-well plate and mix the samples with 50 μL of Milli-Q water. Cover the sample plate and store it in a freezer (−20° C.) until LC/MS/MS analysis.

[5] = Protein binding test (dialysis), rat; type: in vitro ADME
Procedure: as §1

[6] = Protein binding test (dialysis), human; type: in vitro ADME
Procedure: as §1

[7] = male, mouse, plasma, iv, i.v. 2 mg/kg
[8] = male, mouse, plasma, po, p.o. 10 mg/kg

Chain of RIP2 kinase (O43353 whole entry): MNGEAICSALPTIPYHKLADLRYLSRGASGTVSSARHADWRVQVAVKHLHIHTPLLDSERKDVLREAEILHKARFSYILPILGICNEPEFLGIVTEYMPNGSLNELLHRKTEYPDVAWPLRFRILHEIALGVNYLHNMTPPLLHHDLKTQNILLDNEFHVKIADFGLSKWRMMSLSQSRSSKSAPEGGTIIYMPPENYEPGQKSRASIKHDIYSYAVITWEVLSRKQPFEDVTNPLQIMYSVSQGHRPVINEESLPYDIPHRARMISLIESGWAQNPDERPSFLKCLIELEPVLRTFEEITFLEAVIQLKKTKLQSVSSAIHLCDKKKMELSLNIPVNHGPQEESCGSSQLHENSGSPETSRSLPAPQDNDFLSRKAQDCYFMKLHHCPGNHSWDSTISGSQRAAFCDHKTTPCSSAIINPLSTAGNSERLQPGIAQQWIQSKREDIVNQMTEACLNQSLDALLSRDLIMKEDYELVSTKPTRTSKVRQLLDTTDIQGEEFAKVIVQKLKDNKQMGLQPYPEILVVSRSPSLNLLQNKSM

| Compound | Kd [1] [nM] | inhibition at 0.01 µM [2] [%] | also measured |
| --- | --- | --- | --- |
| Cc1[nH]nc(Nc2ccnc3ccc(P(C)(C)=O)cc23)c1C [A4] | 89 | – | – |
| Cn1cc(-c2cc3nccc(Nc4ccc5scnc5c4)c3cc2P(C)(C)=O)cn1 [A11, (4-(benzo[d]thiazol-5-ylamino)-7-(1-methyl-1H-pyrazol-4-yl)quinolin-6-yl)dimethylphosphine oxide] | 3 | 37 | – |
| CP(C)(=O)c1cc2c(Nc3ccc4scnc4c3)ccnc2cc1OC[C@@H](O)CO [A18, (S)-(4-(benzo[d]thiazol-5-ylamino)-7-(2,3-dihydroxypropoxy)quinolin-6-yl)dimethylphosphine oxide] | – | 12 | – |
| Cc1ccc(O)cc1Nc1ccnc2ccc(P(C)(C)=O)cc12 [A2] | 89 | – | – |
| [2H]C([2H])([2H])Oc1cc2nccc(Nc3ccc4scnc4c3)c2cc1P(C)(C)=O [A22] | – | 60 | – |
| COc1cc2nccc(Nc3ccc4scnc4c3F)c2cc1P(C)(C)=O [A28] | – | 63 | – |
| CP(C)(=O)c1cc2c(Nc3ccc4scnc4c3)ccnc2cc1OC1CCOC1 (centres unmarked) [A10] | 1.8 | 51 | – |
| CP(C)(=O)c1ccc2nccc(Nc3n[nH]c4ccc(F)cc34)c2c1 [A3] | 430 | – | – |
| COc1cc2nncc(Nc3ccc4scnc4c3)c2cc1P(C)(C)=O [B2, (4-(benzo[d]thiazol-5-ylamino)-7-methoxycinnolin-6-yl)dimethylphosphine oxide] | – | 0 | inhibition of IL-8 in THP-1 induced by MDP (in words) ([2]; 10 nM): no effect |
| CP(C)(=O)c1cc2c(Nc3ccc4scnc4c3)ccnc2cc1-c1cn[nH]c1 [A17] | – | 11 | – |
| CP(C)(=O)c1cnc2nccc(Nc3ccc4scnc4c3)c2c1 [B1, (5-(benzo[d]thiazol-5-ylamino)-1,8-naphthyridin-3-yl)dimethylphosphine oxide] | 3200 | – | affinity with RIP2 kinase (in words) [1]: low affinity |
| CP(C)(=O)c1cc2c(Nc3ccc4scnc4c3)ccnc2cc1C1COC1 [A26, (4-(benzo[d]thiazol-5-ylamino)-7-(oxetan-3-yl)quinolin-6-yl)dimethylphosphine oxide] | 12 | – | – |
| CP(C)(=O)c1cc2c(Nc3ccc4scnc4c3F)ccnc2cc1OC1COC1 [A29] | – | 85 | – |
| COc1cc2ncc(F)c(Nc3ccc4scnc4c3)c2cc1P(C)(C)=O [A23, (4-(benzo[d]thiazol-5-ylamino)-3-fluoro-7-methoxyquinolin-6-yl)dimethylphosphine oxide] | – | 5 | – |
| CP(C)(=O)c1ccc2nccc(Nc3ccc4scnc4c3)c2c1 [A1, (4-(benzo[d]thiazol-5-ylamino)quinolin-6-yl)dimethylphosphine oxide hydrochloride] | 28 | – | – |
| CP(C)(=O)c1cc2c(Nc3ccc4scnc4c3)ccnc2cc1-c1cc[nH]n1 [A12] | 2.3 | – | – |
| CP(C)(=O)c1cc2c(Nc3ccc4scnc4c3)ccnc2cc1OC(F)F [A25] | 6.4 | – | plasma exposure and bioavailability in mice (in words) [3]: excellent plasma exposure and bioavailability; AUC [3, 7]: 6510 ng·h/mL; Vd [3, 7]: 0.59 L/kg; clearance [3, 7]: 4.3 mL/min/kg; half-life [3, 7]: 1.6 h; AUC [3, 8]: 68300 ng·h/mL; Cmax [3, 8]: 19200 ng/mL; Tmax [3, 8]: 0.7 h; F ([3]; p.o. 10 mg/kg): 210%; protein binding in dog (in words) ([4]; dog): moderate; fraction unbound at 5 h, 1 μM ([4]; dog plasma, 1 μM): 0.05; protein binding in rat (in words) ([5]; rat): high protein binding; fraction unbound at 5 h, 1 μM ([5]; rat plasma, 1 μM): 0.006; protein binding in human (in words) ([6]; human): moderate; fraction unbound at 5 h, 1 μM ([6]; human plasma, 1 μM): 0.032 |
| CP(C)(=O)c1cc2c(Nc3ccc4scnc4c3)ccnc2cc1OC[C@H](O)CO [A19] | – | 13 | – |
| CP(C)(=O)c1cc2c(Nc3ccc4scnc4c3)ccnc2cc1F [A20] | 8.7 | – | – |
| Cc1noc(C)c1-c1cc2nccc(Nc3ccc4scnc4c3)c2cc1P(C)(C)=O [A27] | – | 37 | – |
| CP(C)(=O)c1cc2c(Nc3ccc4scnc4c3)ccnc2cc1OC1CCC1 [A21] | 1.5 | – | – |
| CP(C)(=O)c1ccc2nccc(Nc3cc(O)ccc3F)c2c1 [A5] | 120 | – | – |
